Measured values: publication PMC8434109, “Synthesis and Biological Activity of a Cytostatic Inhibitor of MLLr Leukemia Targeting the DOT1L Protein” (Molecules, 2021)

How the values were obtained:
MV4-11 cells (MLL-AF4) = assay: Cell proliferation and viability, trypan blue counting; format: cell-based, human; details: Homo sapiens, 360 h; MV4-11 (AF4), 15-day treatment; read-out: EC50 of the proliferation inhibition
[1] = tested on: histone marks H2R2me2S, H3K4me3, H3K9me2, H4K20me2, H4K20me3, H3K9me1, H3K36me1; assay: Selectivity on histone marks by fluorescence microscopy HCS; format: cell-based; details: 7 tested histone marks other than H3K79me2
Method: This difference in the mechanism was further confirmed by flow cytometry analysis of the impact of the compounds on the cell cycle and apoptosis.
(§1) Table S1: Selectivity of the compound on a HMT panel (by Reaction Biology, USA) and on hDNMT3Acat (as described in Ceccaldi
(§2) Enzyme % Activity (relative to DMSO
(§3) Testing Concentration 10µM
(§4) Methyltransferase: Substrate: Activity enzyme in %
EZH2 Complex Core Histone 86±1
Figure S4. Selectivity evaluation of the compound Dia-2 by fluorescence microscopy HCS. A) fluorescence imaging of the
H3K79me2 mark B) bar diagram of the percentage of inhibition for compound Dia-2.
(1 picture or pasted object on this page, not shown here)

H3K79me2 in MV4-11 cells = assay: Western blot of H3K79me2 normalized to total H3; format: cell-based, human; details: MV4-11, 4 days, increasing concentrations
Method: (§5) Next, we evaluated the effect on the demethylation of H3K79 in MLL-AF9 MOLM13 cells (Figure 7B).
(§6) The non-adherent cell lines MV4-11, MOLM-13, and KOPN8 exponentially growing cells were plated in 12-well plates (1 plate for each experiment) at a rate of 500,000 cells per well at a final volume of 2 mL. The cells were incubated in the presence of increasing inhibitor concentrations (0.1, 0.32, 1, 3.2, 10 µM). The cells (1 to 2 million) were harvested at the time chosen according to the line in order to extract the histones and the RNAs.
(§7) For the isolation of histones from cells, 1 to 2 million cells were collected, after exposure to the chosen treatment, by centrifugation at 200× g and lysed by 5 min of incubation on ice in 250 μL of the nuclear extraction buffer (10 mM Tris-HCl, 10 mM MgCl2, 25 mM KCl, 1% Triton X-100, 8.6% sucrose, Roche Protease inhibitor tablet 1836145). The nuclei were collected by centrifugation at 600× g for 5 min at 4 °C. The supernatant was removed and the histones were extracted for 1 h with 0.4 N cold sulfuric acid. The extracts were clarified by centrifugation at 10,000× g for 10 min at 4 °C and transferred to a microcentrifuge tube containing a 10× volume of ice-cold acetone. The histones were precipitated at ‒20 °C overnight and recovered by centrifugation at 1500× g for 10 min in the form of a pellet and then resuspended in 80 μL of water. Histones were quantified by absorbance measured by a nanodrop at 276 nm.
(§8) After extraction, the histones (500ng) were separated on 4–20% Tris-Glycine gels (Invitrogen) and transferred onto a nitrocellulose membrane ([…]) using the iBlot® Gel Transfer Stacks Nitrocellulose kit Mini (Invitrogen). After blocking nonspecific sites for 1 h at room temperature in a solution of 1X TBS at 5% milk, the membrane was incubated with rabbit anti-H3K79me2 (ab3594, 1/1000) or anti-H3 (ab1791)1/1000) overnight at 4 °C or 1 h at RT. The membrane was then washed three times for 5 min in a 1X TBS solution containing 0.05% Tween20 and was then incubated with an HRP anti-rabbit secondary antibody (NA934V, 1/10,000) for 1 h at RT. […]

H3K79me2 in MOLM13 cells = assay: Western blot of H3K79me2 normalized to total H3; format: cell-based, human; details: MOLM13, 6 days
Method: as §5, §6, §7, §8

recombinant hDOT1L = recombinant hDOT1L (Homo sapiens, UniProt Q8TEK3); assay: AlphaLISA DOT1L enzymatic inhibition assay on purified nucleosomes
MV4-11 cells [2] = assay: Flow cytometry cell cycle analysis (propidium iodide); format: cell-based, human; details: for percentage of cells in the G0/G1 phase / percentage of cells in the S phase: MV4-11, 3.2 µM
Method: (§9) A decrease in the S phase of the cell cycle was also observed from 24% (day 8) to 20% (day 10), 13% (day 12).
(§10) In a 12-well plate, 2 mL exponentially growing MV4-11 cells were plated with a density of 2 × 10^5 cells/mL. […] Culture media and drugs were replaced every 2–3 days and cells were split back to a density of 2 × 10^5 cells/mL at the same time. Cells were harvested on days 8, 10, 12 and split to allow the analysis of cell cycle and Annexin V staining simultaneously. The apoptosis ratio was detected by an Annexin V-APC/7-AAD double staining assay (SONY 3804610) and cells were prepared according to the manufacturer’s recommendations. Cells for the cell cycle analysis were collected by centrifugation at 500× g for 5 min at 4 °C. The pellets were washed once with cold PBS and then fixed with 70% ethanol on ice for 30 min. Afterwards, the cells were washed once with cold PBS and stained with propidium iodide (Invitrogen P3566) for 30 min at 37 °C. Samples were measured using an Attune NxT acoustic focusing cytometer (Life Technologies), data were analyzed by FlowJo.

DNMT3A = DNMT3A (Homo sapiens, UniProt Q9Y6K1); assay: hDNMT3Acat activity assay; format: biochemical; details: substrate DNA, read-out: Enzyme % Activity (relative to DMSO controls)
Method: as §1, §2, §3, §4

MOLM-13 cells (MLL-AF9) = assay: Cell proliferation, trypan blue counting; format: cell-based; details: Homo sapiens, 360 h; MOLM-13 (AF9), 15-day treatment; read-out: EC50 of the proliferation inhibition
MV4-11 cells [3] = assay: Flow cytometry apoptosis analysis (Annexin V-APC/7-AAD); format: cell-based, human
Method: as §9, §10

recombinant hDOT1L, sequence (Q8TEK3 1-416): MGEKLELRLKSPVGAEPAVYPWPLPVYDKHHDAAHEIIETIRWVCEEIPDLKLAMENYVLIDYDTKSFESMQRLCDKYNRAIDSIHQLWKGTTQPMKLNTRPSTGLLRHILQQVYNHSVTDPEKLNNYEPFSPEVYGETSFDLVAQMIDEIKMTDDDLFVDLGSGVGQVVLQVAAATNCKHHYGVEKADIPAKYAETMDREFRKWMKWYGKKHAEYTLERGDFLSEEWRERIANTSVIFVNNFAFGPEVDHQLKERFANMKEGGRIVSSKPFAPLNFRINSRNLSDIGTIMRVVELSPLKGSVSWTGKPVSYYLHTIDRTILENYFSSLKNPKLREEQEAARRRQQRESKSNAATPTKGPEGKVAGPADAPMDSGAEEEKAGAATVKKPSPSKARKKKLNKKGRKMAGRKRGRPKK
DNMT3A, sequence (Q9Y6K1 634-912 limits assumed): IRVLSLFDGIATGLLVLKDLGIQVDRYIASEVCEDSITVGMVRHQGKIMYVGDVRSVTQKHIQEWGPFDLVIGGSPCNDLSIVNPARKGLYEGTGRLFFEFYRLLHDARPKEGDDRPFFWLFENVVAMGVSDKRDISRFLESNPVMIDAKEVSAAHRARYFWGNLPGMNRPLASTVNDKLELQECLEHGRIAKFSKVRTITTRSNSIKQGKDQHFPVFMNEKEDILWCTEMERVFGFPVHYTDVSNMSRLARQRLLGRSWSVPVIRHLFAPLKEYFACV

CC(C)[C@H](CCCNC(=O)Nc1ccc(C(C)(C)C)cc1)N[C@H]1C[C@@H](n2cnc3c(N)ncnc32)[C@H](O)[C@@H]1O [Dia2, 1-((S)-4-(((1S,2R,3S,4R)-4-(6-amino-9H-purin-9-yl)-2,3-dihydroxycyclopentyl)amino)-5-methylhexyl)-3-(4-(tert-butyl)phenyl)urea]
EC50 (MV4-11 cells (MLL-AF4)): 93 ± 4 nM
effect on other histone marks in cells [1]: does not affect the other 7 tested histone marks
H3K79me2 methylation compared to DMSO treated cells (H3K79me2 in MV4-11 cells): efficient decrease in methylation
inhibition of the H3K79me2 mark (H3K79me2 in MOLM13 cells): as efficient as EPZ-5676
IC50 (recombinant hDOT1L): 4.7 nM
effect on the cell cycle (MV4-11 cells [2]; MV4-11, 1 µM): does not affect the cell cycle
percentage of cells in the G0/G1 phase (MV4-11 cells [2]; day 8): 53%
percentage of cells in the S phase (MV4-11 cells [2]; day 8): 24%
percentage of cells in the G0/G1 phase (MV4-11 cells [2]; day 10): 41%
percentage of cells in the S phase (MV4-11 cells [2]; day 10): 20%
percentage of cells in the G0/G1 phase (MV4-11 cells [2]; day 12): 24%
percentage of cells in the S phase (MV4-11 cells [2]; day 12): 13%
remaining activity at 10 µM (DNMT3A): 96 ± 2%
EC50 (MOLM-13 cells (MLL-AF9)): 120 ± 10 nM
effect on apoptosis (MV4-11 cells [3]; MV4-11): very little apoptosis
apoptotic (Annexin V positive) cells (MV4-11 cells [3]; MV4-11, 1 µM, day 8): 23%
apoptotic (Annexin V positive) cells (MV4-11 cells [3]; MV4-11, 1 µM, day 10): 20%
apoptotic (Annexin V positive) cells (MV4-11 cells [3]; MV4-11, 3.2 µM, day 8): 35%
apoptotic (Annexin V positive) cells (MV4-11 cells [3]; MV4-11, 3.2 µM, day 10): 38%
